{
  "source": "patent US20090131329A1",
  "about": "“Treatment for allograft rejection” (priority 2007, published 2009)",
  "key": {"[1]": {"tested_on": "lung allograft rejection (BN donor into F344 recipient)", "assay": "Radiographic evaluation (aeration score) of transplanted lungs", "assay_type": "in vivo, rat", "settings": "for aeration score (AS) of representative chest radiograph: day 7", "protocol": "Methods. Orthotopic left lung allotransplantation was performed from Brown Norway (donor) to Fisher 344 (recipient) rats. The role of activated neutrophils in the development of allograft rejection is believed to be biphasic. Therefore, specific CXC receptor inhibition was used with antileukinate in two dosing regimens. Recipients were allocated into 4 groups: A (early administration: n=6) received two doses of antileukinate (a hexapeptide), 10.0 mg/kg intramuscularly 24 hours before and immediately after transplantation, B (continuous administration: n=8) animals continuously received antileukinate intraperitoneally (10.0 mg/kg/day) for 7 days after surgery. Experimental groups A or B were compared with their individual control that received saline alone (Cont-A and Cont-B). The progression of rejection was assessed radiographically. Each animal was sacrificed on day 7 for histologic evaluation of allograft rejection based on pathologic rejection grade. Transplant Model. Rat left-lung transplantation was performed in a RT1 (MHC) incompatible donor-recipient combination from a BN donor into a F344 recipient. Complete graft rejection in this severely mismatched combination would be expected histologically and radiographically on day 7 postoperatively. The orthotopic left-lung transplantation procedure used in this study was a modification of the ‘cuff’ technique for vascular anastomosis (Mizuta et al., 1989). In brief, the lung grafts were flushed and immersed in ice-cold normal saline solution before implantation. Cuffs with internal diameters of 1.65 mm and 2.20 mm for pulmonary arterial and venous anastomosis, respectively, were used. The left main bronchus was anastomosed using 8-0 prolene running sutures. In rats, radiographic assessment of a left-lung transplantation graft can be obscured by the right lung. Therefore, a postcaval lobectomy on the recipient's right lung was performed immediately after implantation so as to facilitate radiographic assessment of the left-lung allograft. […] Experimental groups. Recipient animals were divided into 4 groups (Table 1). Animals from group A (early administration; n=6) received 0.5 ml of phosphate-buffered saline (PBS) solution containing a 10.0 mg/kg concentration of antileukinate intramuscularly 24 hours before (day −1) and immediately after transplantation (day 0). The control group against group A (Cont-A) received 0.5 ml of PBS in a similar fashion. Allograft recipients from group B (continuous administration; n=8) were given continuous antileukinate administration intraperitoneally for 7 days after transplantation, starting immediately after surgery using a micro-osmotic pump which was implanted into the peritoneal cavity two hours before lung transplantation. Antileukinate was released into the recipient's peritoneal cavity continuously at a dose of 10.0 mg/kg/day from days 0 to 7. Animals from Cont-B served as the control group against group B receiving the same amount of PBS without antileukinate in the same manner. Implantation of micro-osmotic pumps for groups B and Cont-B. Micro-osmotic pumps (model 2001; Alzet Corp., distributed by Charles River Laboratories, Sulzfeld, Germany) were used for intraperitoneal delivery of antileukinate. […] Transplanted lungs were serially assessed every other day by chest roentgenogram under spontaneous ventilation with halothane for sedation. […] Briefly, it was evaluated and graded 0 for an opaque lung, and up to 6 for a normal-appearing lung. […]"}, "[2]": {"tested_on": "neutrophils in the lung allograft", "assay": "Number of neutrophils infiltrated into lung grafts", "assay_type": "in vivo, rat", "settings": "day 7", "protocol": "Transplant Model. Rat left-lung transplantation was performed in a RT1 (MHC) incompatible donor-recipient combination from a BN donor into a F344 recipient. Complete graft rejection in this severely mismatched combination would be expected histologically and radiographically on day 7 postoperatively. The orthotopic left-lung transplantation procedure used in this study was a modification of the ‘cuff’ technique for vascular anastomosis (Mizuta et al., 1989). In brief, the lung grafts were flushed and immersed in ice-cold normal saline solution before implantation. Cuffs with internal diameters of 1.65 mm and 2.20 mm for pulmonary arterial and venous anastomosis, respectively, were used. […] Acute rejection was evaluated histologically and assigned a rejection score (RS) based on the clinical international working formulation: IWF grade 0, no significant abnormality; grade 1, scattered infrequent perivascular mononuclear infiltration; grade 2, frequent perivascular mononuclear infiltration; grade 3, extension of mononuclear infiltration into alveolar septum/space; and grade 4, diffuse perivascular, interstitial, and air space infiltration of mononuclear cells. The number of neutrophils was counted in a blinded fashion in 10 random fields per slide at ×1000 magnification. […] The data were expressed as mean±standard deviation. […]"}, "[3]": {"tested_on": "lung allograft (BN donor into F344 recipient)", "assay": "Macroscopic findings of the allograft on day 7", "assay_type": "in vivo, rat", "settings": "controls: complete consolidation without aeration", "protocol": "Transplant Model. Rat left-lung transplantation was performed in a RT1 (MHC) incompatible donor-recipient combination from a BN donor into a F344 recipient. Complete graft rejection in this severely mismatched combination would be expected histologically and radiographically on day 7 postoperatively. The orthotopic left-lung transplantation procedure used in this study was a modification of the ‘cuff’ technique for vascular anastomosis (Mizuta et al., 1989). In brief, the lung grafts were flushed and immersed in ice-cold normal saline solution before implantation. Cuffs with internal diameters of 1.65 mm and 2.20 mm for pulmonary arterial and venous anastomosis, respectively, were used. The left main bronchus was anastomosed using 8-0 prolene running sutures. In rats, radiographic assessment of a left-lung transplantation graft can be obscured by the right lung. Therefore, a postcaval lobectomy on the recipient's right lung was performed immediately after implantation so as to facilitate radiographic assessment of the left-lung allograft. […] Experimental groups. Recipient animals were divided into 4 groups (Table 1). Animals from group A (early administration; n=6) received 0.5 ml of phosphate-buffered saline (PBS) solution containing a 10.0 mg/kg concentration of antileukinate intramuscularly 24 hours before (day −1) and immediately after transplantation (day 0). […]"}, "[4]": {"tested_on": "lung allograft rejection (BN donor into F344 recipient)", "assay": "Histological evaluation of acute rejection (IWF rejection score) of rat lung allografts on day 7", "assay_type": "in vivo", "protocol": "Methods. Orthotopic left lung allotransplantation was performed from Brown Norway (donor) to Fisher 344 (recipient) rats. The role of activated neutrophils in the development of allograft rejection is believed to be biphasic. Therefore, specific CXC receptor inhibition was used with antileukinate in two dosing regimens. Recipients were allocated into 4 groups: A (early administration: n=6) received two doses of antileukinate (a hexapeptide), 10.0 mg/kg intramuscularly 24 hours before and immediately after transplantation, B (continuous administration: n=8) animals continuously received antileukinate intraperitoneally (10.0 mg/kg/day) for 7 days after surgery. Experimental groups A or B were compared with their individual control that received saline alone (Cont-A and Cont-B). The progression of rejection was assessed radiographically. Each animal was sacrificed on day 7 for histologic evaluation of allograft rejection based on pathologic rejection grade. Transplant Model. Rat left-lung transplantation was performed in a RT1 (MHC) incompatible donor-recipient combination from a BN donor into a F344 recipient. Complete graft rejection in this severely mismatched combination would be expected histologically and radiographically on day 7 postoperatively. […]"}, "[5]": {"settings": "group B (continuous administration)"}},
  "data": [
    {"substance": "Ac-RRWWCR-NH2 [antileukinate]", "values": [
      {"measurement": "aeration score versus control at each time point", "setting": "[1]; group A (early administration) versus Cont-A", "result": "No significant differences"},
      {"measurement": "aeration score (AS) of representative chest radiograph", "setting": "[1]; group A (early administration)", "result": 6},
      {"measurement": "aeration score versus control at each time point", "setting": "[1]; group B (continuous administration) versus Cont-B", "result": "No significant differences"},
      {"measurement": "aeration score (AS) of representative chest radiograph", "setting": "[1]; [5]", "result": 5},
      {"measurement": "aeration score (AS) on day 7, mean±standard deviation", "setting": "[1]; group B: continuous ip 10.0 mg/kg/day, Cont-B 1.6±1.3, p=0.16, score 0=opaque to 6=normal-appearing lung", "result": "2.6±2.1"},
      {"measurement": "neutrophil count in the graft", "setting": "[2]; group A: 10.0 mg/kg im day -1 and day 0, Cont-A 55.7±10.0, p=0.093", "result": "34.8±28.7 /10HPFs"},
      {"measurement": "neutrophil count in the graft", "setting": "[2]; group B: continuous ip 10.0 mg/kg/day, Cont-B 47.9±18.4, p=0.046", "result": "32.1±9.6 /10 HPFs"},
      {"measurement": "macroscopic finding of the allograft", "setting": "[3]; group A (early administration)", "result": "macroscopically adequate ventilation"},
      {"measurement": "macroscopic finding of the allograft", "setting": "[3]; [5]", "result": "macroscopically adequate ventilation"},
      {"measurement": "rejection score (RS) of representative allograft", "setting": "[4]; group B (continuous administration), day 7, representative histology", "result": 1},
      {"measurement": "histologic rejection score (IWF), mean±standard deviation", "setting": "[4]; group B: continuous ip 10.0 mg/kg/day days 0 to 7, n=8, day 7, Cont-B 3.3±0.5, p=0.018, scale 0-4", "result": "2.1±1.0"}
    ]}
  ]
}
